According to patent publication US11622970B2, “BCL-2 inhibitors and their use as pharmaceuticals” (PRELUDE THERAPEUTICS INCORPORATED, priority 2020, dated 2023):
pIC50: −log10 of the molar value.

Target: BCL-2 recombinant protein (Homo sapiens, UniProt P10415)
Experiment: Cell free Bcl-2:Bak affinity assay (Bcl-2 Bak), HTRF competition of FAM-Bak peptide
Format: binding
Details: 1 μM compound, 4 nM BCL-2 recombinant protein, 100 nM FAM-Bak, read-out: potency (% inhibition at 1 μM)
Procedure: Biological Assays: Cell Free Bcl-2:Bak Affinity Assay (Bcl-2 Bak)
The assay is based on the competition of fluorescently labeled peptide binding to BCL-2 and the binding is monitored by HTRF signals between anti-GST-Tb and FAM-peptide using GST-Tag BCL proteins. Testing compounds were dissolved in DMSO at 10 mM and tested in 10-concentration IC50 mode. The compounds of interest in DMSO were added in 3-fold serial dilution to each well containing 4 nM of BCL-2 recombinant protein, 20 mM K Phosphate, pH 7.5, 50 mM NaCl, 1 mM EDTA, 0.005% Triton X-100, by using acoustic technology (Labcyte echo 550), After 10 minutes incubation at room temperature, 100 nM of FAM-Bak was added and incubated for another 10 minutes before addition of Anti-GST-Tb. The plate was then sealed and further incubated at room temperature for 60 minutes in the dark before reading. Percentage of inhibition was calculated by % inhibition=100×(FDMSO−F)/(FDMSO−FPC), in which FDMSO is DMSO control and FPC is a positive control. IC50 values were determined from dose-response curve by fitting the percent inhibition against compound concentration using GraphPad Prism software.

Sequence of BCL-2 recombinant protein (P10415 whole entry): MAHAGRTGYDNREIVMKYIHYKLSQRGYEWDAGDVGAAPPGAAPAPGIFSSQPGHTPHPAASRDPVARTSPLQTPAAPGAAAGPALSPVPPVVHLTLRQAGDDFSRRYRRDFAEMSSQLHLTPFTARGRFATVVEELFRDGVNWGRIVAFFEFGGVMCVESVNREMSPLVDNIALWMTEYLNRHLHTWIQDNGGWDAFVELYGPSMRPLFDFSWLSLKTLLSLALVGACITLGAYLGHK

| SMILES | inhibition at 1 µM |
| --- | --- |
| Cc1cccc(COc2cccc(C(=O)NS(=O)(=O)c3ccc(N4CCN(CC5=C(c6ccc(Cl)cc6)CC(C)(C)CC5)CC4)cc3)c2)c1 [Example 34, N-([4-[4-[[2-(4-chlorophenyl)-4,4-dimethylcyclohexen-1-yl]methyl]piperazin-1-yl]phenyl]sulfonyl)-3-((3-methylbenzyl)oxy)benzamide] | 50 to 90% |
| CC1(C)CCC(CN2CCN(c3ccc(S(=O)(=O)NC(=O)c4ccc(COc5cc(Cl)ccc5Cl)cc4)cc3)CC2)=C(c2ccc(Cl)cc2)C1 [Example 35, N-([4-[4-[[2-(4-chlorophenyl)-4,4-dimethylcyclohexen-1-yl]methyl]piperazin-1-yl]phenyl]sulfonyl)-4-((2,5-dichlorophenoxy)methyl)benzamide] | > 90% |
| CC1(C)CCC(CN2CCN(c3ccc(S(=O)(=O)NC(=O)c4ccc(OCc5ccccc5)c([N+](=O)[O-])c4)cc3)CC2)=C(c2ccc(Cl)cc2)C1 [Example 36, 4-(benzyloxy)-N-([4-[4-[[2-(4-chlorophenyl)-4,4-dimethylcyclohexen-1-yl]methyl]piperazin-1-yl]phenyl]sulfonyl)-3-nitrobenzamide] | 50 to 90% |
| CC1(C)CCC(CN2CCN(c3ccc(S(=O)(=O)NC(=O)c4ccc([N+](=O)[O-])c(OCc5ccccc5)c4)cc3)CC2)=C(c2ccc(Cl)cc2)C1 [Example 40, 3-(benzyloxy)-N-([4-[4-[[2-(4-chlorophenyl)-4,4-dimethylcyclohexen-1-yl]methyl]piperazin-1-yl]phenyl]sulfonyl)-4-nitrobenzamide] | 50 to 90% |
| CC1(C)CCC(CN2CCN(c3ccc(S(=O)(=O)NC(=O)c4cc([N+](=O)[O-])c(NCC5CCOCC5)cc4Cl)cc3)CC2)=C(c2ccc(Cl)cc2)C1 [Example 41, 2-Chloro-N-[4-[4-[[2-(4-chlorophenyl)-4,4-dimethylcyclohexen-1-yl]methyl]piperazin-1-yl]phenyl]sulfonyl-5-nitro-4-(tetrahydropyran-4-ylmethylamino)benzamide] | 50 to 90% |
| Cc1c(Cl)c(C(=O)NS(=O)(=O)c2ccc(N3CCN(CC4=C(c5ccc(Cl)cc5)CC(C)(C)CC4)CC3)cc2)cc([N+](=O)[O-])c1NCC1CCOCC1 [Example 42, 2-Chloro-N-([4-[4-[[2-(4-chlorophenyl)-4,4-dimethylcyclohexen-1-yl]methyl]piperazin-1-yl]phenyl]sulfonyl)-3-methyl-5-nitro-4-(tetrahydropyran-4-ylmethylamino)benzamide] | > 90% |
| CC1(C)CCC(CN2CCN(c3ccc(S(=O)(=O)NC(=O)c4ccc(COc5ccccc5)c([N+](=O)[O-])c4)cc3)CC2)=C(c2ccc(Cl)cc2)C1 [Example 52, N-[4-[4-[[2-(4-chlorophenyl)-4,4-dimethylcyclohexen-1-yl]methyl]piperazin-1-yl]phenyl]sulfonyl-3-nitro-4-(phenoxymethyl)benzamide] | 50 to 90% |
| CC1(C)CCC(CN2CCN(c3ccc(S(=O)(=O)NC(=O)c4ccc(F)c(OCc5ccccc5)c4)cc3)CC2)=C(c2ccc(Cl)cc2)C1 [Example 53, 3-(benzyloxy)-N-[4-[4-[[2-(4-chlorophenyl)-4,4-dimethylcyclohexen-1-yl]methyl]piperazin-1-yl]phenyl]sulfonyl-4-fluorobenzamide] | 50 to 90% |

Now from value to compound:

| inhibition at 1 µM | SMILES |
| --- | --- |
| 50 to 90% | Cc1nn(C)c(C)c1-c1nc(C(=O)NS(=O)(=O)c2ccc(N3CCN(CC4=C(c5ccc(Cl)cc5)CC(C)(C)CC4)CC3)cc2)ccc1F [Example 44, N-[4-[4-[[2-(4-chlorophenyl)-4,4-dimethylcyclohexen-1-yl]methyl]piperazin-1-yl]phenyl]sulfonyl-5-fluoro-6-(1,3,5-trimethylpyrazol-4-yl)pyridine-2-carboxamide] |
| 50 to 90% | Cn1cc(-c2nc(C(=O)NS(=O)(=O)c3ccc(N4CCN(CC5=C(c6ccc(Cl)cc6)CC(C)(C)CC5)CC4)cc3)ccc2F)cn1 [Example 45, N-[4-[4-[[2-(4-chlorophenyl)-4,4-dimethylcyclohexen-1-yl]methyl]piperazin-1-yl]phenyl]sulfonyl-5-fluoro-6-(1-methyl-1H-pyrazol-4-yl)pyridine-2-carboxamide] |
| 50 to 90% | CC1(C)CCC(CN2CCN(c3ccc(S(=O)(=O)NC(=O)c4ccc(F)c(-n5ccnc5)n4)cc3)CC2)=C(c2ccc(Cl)cc2)C1 [Example 46, N-[4-[4-[[2-(4-chlorophenyl)-4,4-dimethylcyclohexen-1-yl]methyl]piperazin-1-yl]phenyl]sulfonyl-5-fluoro-6-(1H-imidazol-1-yl)pyridine-2-carboxamide] |
| 50 to 90% | CC1(C)CCC(CN2CCN(c3ccc(S(=O)(=O)NC(=O)c4ccc(F)c(-c5cnc6c(c5)CC(=O)N6)n4)cc3)CC2)=C(c2ccc(Cl)cc2)C1 [Example 47, N-[4-[4-[[2-(4-chlorophenyl)-4,4-dimethylcyclohexen-1-yl]methyl]piperazin-1-yl]phenyl]sulfonyl-5-fluoro-6-(2-oxo-2,3-dihydro-1H-pyrrolo[2,3-b]pyridin-5-yl)pyridine-2-carboxamide] |
| 50 to 90% | CC1(C)CCC(CN2CCN(c3ccc(S(=O)(=O)NC(=O)c4ccc(F)c(-c5ccc6[nH]ncc6c5)n4)cc3)CC2)=C(c2ccc(Cl)cc2)C1 [Example 48, N-[4-[4-[[2-(4-chlorophenyl)-4,4-dimethylcyclohexen-1-yl]methyl]piperazin-1-yl]phenyl]sulfonyl-5-fluoro-6-(1H-indazol-5-yl)pyridine-2-carboxamide] |
| > 90% | CC1(C)CCC(CN2CCN(c3ccc(S(=O)(=O)NC(=O)c4ccc(F)c(-c5ccc6[nH]nnc6c5)n4)cc3)CC2)=C(c2ccc(Cl)cc2)C1 [Example 49, 6-(1H-benzo[d][1,2,3]triazol-5-yl)-N-[4-[4-[[2-(4-chlorophenyl)-4,4-dimethylcyclohexen-1-yl]methyl]piperazin-1-yl]phenyl]sulfonyl-5-fluoro pyridine-2-carboxamide] |
| 50 to 90% | Cn1ncc2cc(-c3nc(C(=O)NS(=O)(=O)c4ccc(N5CCN(CC6=C(c7ccc(Cl)cc7)CC(C)(C)CC6)CC5)cc4)ccc3F)ccc21 [Example 50, N-[4-[4-[[2-(4-chlorophenyl)-4,4-dimethylcyclohexen-1-yl]methyl]piperazin-1-yl]phenyl]sulfonyl-5-fluoro-6-(1-methyl-1H-indazol-5-yl)pyridine-2-carboxamide] |
| 50 to 90% | CC1(C)CCC(CN2CCN(c3ccc(S(=O)(=O)NC(=O)c4ccc([N+](=O)[O-])c(OCc5ccccc5)n4)cc3)CC2)=C(c2ccc(Cl)cc2)C1 [Example 51, 6-(benzyloxy)-N-[4-[4-[[2-(4-chlorophenyl)-4,4-dimethylcyclohexen-1-yl]methyl]piperazin-1-yl]phenyl]sulfonyl-5-nitropyridine-2-carboxamide] |

Same assay, conditions: 10-concentration IC50 mode, 4 nM BCL-2 recombinant protein, 100 nM FAM-Bak, read-out: potency (IC50)

| SMILES | pIC50 |
| --- | --- |
| CC1(C)CCC(CN2CCN(c3ccc(S(=O)(=O)NC(=O)c4ccc(F)c(COc5ccc(Cl)cc5)c4)cc3)CC2)=C(c2ccc(Cl)cc2)C1 [Example 37, N-([4-[4-[[2-(4-chlorophenyl)-4,4-dimethylcyclohexen-1-yl]methyl]piperazin-1-yl]phenyl]sulfonyl)-3-((4-chlorophenoxy)methyl)-4-fluorobenzamide] | 7.00 to 8.00 |
| CC1(C)CCC(CN2CCN(c3ccc(S(=O)(=O)NC(=O)c4ccc([N+](=O)[O-])c(COc5ccc(Cl)cc5)c4)cc3)CC2)=C(c2ccc(Cl)cc2)C1 [Example 38, N-([4-[4-[[2-(4-chlorophenyl)-4,4-dimethylcyclohexen-1-yl]methyl]piperazin-1-yl]phenyl]sulfonyl)-3-((4-chlorophenoxy)methyl)-4-nitrobenzamide] | 7.00 to 8.00 |
| CC1(C)CCC(CN2CCN(c3ccc(S(=O)(=O)NC(=O)c4ccc(COc5ccc(Cl)cc5)c([N+](=O)[O-])c4)cc3)CC2)=C(c2ccc(Cl)cc2)C1 [Example 39, N-([4-[4-[[2-(4-chlorophenyl)-4,4-dimethylcyclohexen-1-yl]methyl]piperazin-1-yl]phenyl]sulfonyl)-4-((4-chlorophenoxy)methyl)-3-nitrobenzamide] | 7.00 to 8.00 |
| CCNc1c([N+](=O)[O-])cc(C(=O)NS(=O)(=O)c2ccc(N3CCN(CC4=C(c5ccc(Cl)cc5)CC(C)(C)CC4)CC3)cc2)c(Cl)c1C [Example 43, 2-chloro-N-[4-[4-[[2-(4-chlorophenyl)-4,4-dimethylcyclohexen-1-yl]methyl]piperazin-1-yl]phenyl]sulfonyl-4-(ethylamino)-3-methyl-5-nitrobenzamide] | 6.00 to 7.00 |

More lines, now with the values ahead:

| pIC50 | SMILES |
| --- | --- |
| < 6.00 | CC1(C)CCC(CN2CCN(c3ccc(S(=O)(=O)NC(=O)c4cccc([N+](=O)[O-])c4)cc3)CC2)=C(c2ccc(Cl)cc2)C1 [Example 32, N-([4-[4-[[2-(4-chlorophenyl)-4,4-dimethylcyclohexen-1-yl]methyl]piperazin-1-yl]phenyl]sulfonyl)-3-nitrobenzamide] |
| 7.00 to 8.00 | CC1(C)CCC(CN2CCN(c3ccc(S(=O)(=O)NC(=O)c4ccc(F)c(Br)n4)cc3)CC2)=C(c2ccc(Cl)cc2)C1 [Example 33, 6-bromo-N-([4-[4-[[2-(4-chlorophenyl)-4,4-dimethylcyclohexen-1-yl]methyl]piperazin-1-yl]phenyl]sulfonyl)-5-fluoropyridine-2-carboxamide] |
